Measured values published in paper PMC5667506, “Potent and selective inhibition of SH3 domains with dirhodium metalloinhibitors” (Chemical Science, 2015).
“And” between values parts separate entries of the source, which are not always exact repeats. Identical values can stand only once. Rh2(OAc)3 = dirhodium(II) triacetate, bound to the side-chain carboxylate

Tests used:
[1] = target: T1, Lyn SH3 domain (Homo sapiens, UniProt P07948); assay: ITC binding of metallopeptides to Lyn SH3 domain
T1 construct: The lyn SH3 domain was amplified by PCR using Phusion DNA polymerase; GST (N, cleaved yes); made in house; host or cells: E. coli BL21 (DE3)
T1 sequence (P07948 62-121): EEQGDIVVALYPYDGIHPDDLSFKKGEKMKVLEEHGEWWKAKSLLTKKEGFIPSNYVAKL
Excerpt: The His96 is unique among Src-family sequences, and the His78 appears only in Hck and Lck. Individual amino-acid alterations are the only factors that might distinguish the nearly identical secondary structures and peptide-binding preferences of Src-family SH3 domains (cf. Fig. 1a and b). Based on a Src-family SH3-binding sequence (VSL12),[37] known to bind with similar affinity across Src-family SH3 domains,[38] we made metallopeptides with rhodium in different sites near the beginning of the SH3-binding peptide. […] The optimal metallopeptide, S2E^Rh, bound to Lyn with 6 nM affinity. The accuracy of ITC data is reduced for C values >1000 (C = [protein]/K d). Under these conditions the distribution of data points on the isotherm reduces the precision of the global fit. Since the enthalpic contributions to binding in the formation of the complexes described in this work were high, we were able to use a low protein concentration (4 μM) which ensured that our C values were well below this upper range. […] In broad terms, the thermodynamics—favourable enthalpy and unfavourable entropy—are consistent with previous examinations of peptide–SH3 binding (see Table S1 ^† for thermodynamic data).[39] Moving the location of the rhodium center toward the N-terminus, away from the histidine, led to a drop in binding affinity. The N13D^Rh metallopeptide, a convenient negative control with the rhodium center too far for histidine interactions, binds with micromolar activity, similar to simple SH3 binding of the parent peptide. We conclude that the vast affinity improvement is due to rhodium coordination to unique histidine residue(s).
(§1) All chemical reagents were purchased from Sigma-Aldrich and were used without further purification.
(§2) Peptide synthesis. All peptides were synthesized manually or with an AAPPTEC APEX 396 Automated Multipeptide Synthesizer using standard solid-phase Fmoc protocols.1,2 Peptides were prepared as C-terminal amides using Rink amide MBHA resin (AAPPTEC) and were acetylated at the N-terminus prior to cleavage from the resin. Peptides and metallopeptides were purified by reverse-phase HPLC.
HPLC separation. Reverse-phase HPLC was performed on a Shimadzu CBM-20A instrument with Phenomenex Jupiter 4μ Proteo 90A (250 × 15 mm preparative) and Phenomenex Jupiter 4μ Proteo 90A (250 × 4.6 mm analytical) columns. The columns were eluted with a gradient of acetonitrile in water (10-90%) (flow rates of 8 mL/min and 1 mL/min for preparative and analytical columns, respectively). Trifluoroacetic acid (0.1%) was added to all eluents. […]
(§3) ITC analysis. ITC experiments were carried out on a VP-ITC instrument (MicroCal) at 25 °C. Titrations of 275 μM peptide into 18 μM SH3 domain proteins were used for all titrations, except for the titration of S2ERh into Lyn SH3 domain, where the lower concentrations of 69 µM S2ERh peptide and 4 µM Lyn SH3 were used to attain a c-value for the titration within the accepted limts for ITC experiments ([…]).3
(§4) Heats of dilutions were measured independently for each experiment by titrating 275 μM peptide into buffer (20 mM phosphate buffer, pH 7, 150 mM NaCl, 1 mM EDTA). All experimental data were fitted using a one set of sites binding model in Origin software (MicroCal) except for the data with Hck SH3 domain. With Hck only, the non-peptide specific binding of dirhodium tetraacetate to Hck SH3 domain could not be treated as negligible, despite the very weak interaction (88 µM), due to the larger enthalpy contribution observed for non-specific binding to this SH3 domain, so the titrations of peptide into Hck were fitted using a 2 set of sites binding model where the stoichiometry for the second set of sites was fixed at 2.0. […]
(§5) Mass spectrometry. ESI-MS was performed on a Bruker Daltonics micrOTOF instrument.
Known compounds and proteins. Several metallopeptides (S2ERh, L3ERh, R5ERh, and 13DRh) were reported previously and […]

[2] = target: T2, Src SH3 domain (Homo sapiens, UniProt P12931); assay: ITC binding to Src SH3 domain
T2 construct: fyn, yes, lck, and src SH3 protein domains were prepared following published procedures; made in house
Description: as §1, §2
HPLC separation. Reverse-phase HPLC was performed on a Shimadzu CBM-20A instrument with Phenomenex Jupiter 4μ Proteo 90A (250 × 15 mm preparative) and Phenomenex Jupiter 4μ Proteo 90A (250 × 4.6 mm analytical) columns. The columns were eluted with a gradient of acetonitrile in water (10-90%) (flow rates of 8 mL/min and 1 mL/min for preparative and analytical columns, respectively). Trifluoroacetic acid (0.1%) was added to all eluents.
FPLC separation. Analytical FPLC was performed on an ÄKTA instrument with Superdex Peptide PE 7.5/300 column. The column was equilibrated with buffer (150 mM NaCl, 50 mM Tris, pH 7.0) at flow rate of 0.2 mL/min.
as §3, §4, §5
Known compounds and proteins. Several metallopeptides (S2ERh, L3ERh, R5ERh, and 13DRh) were reported previously and were prepared by known protocols;4 alkyne-diazo 3,5 3-azido-7-hydroxycoumarin6 were synthesized following reported procedures; fyn, yes, lck, and src SH3 protein domains were prepared following published procedures.5 Abl, hck, and lyn SH3 domain plasmids were adapted from the previously reported genes;7 the gene templates were obtained from Addgene, ID

| Kd ([1]; 25 °C) | Stoichiometry [1] | -TΔS ([1]; 25 °C) [kcal/mol] | ΔG ([1]; 25 °C) [kcal/mol] | ΔH ([1]; 25 °C) | ΔH ([1]; 25 °C, listed as S2ERh) [kcal/mol] | Stoichiometry [2] | -TΔS ([2]; 25 °C) [kcal/mol] | Kd ([2]; 25 °C) [nM] | ΔG ([2]; 25 °C) [kcal/mol] | ΔH ([2]; 25 °C) [kcal/mol] | Substance |
| --- | --- | --- | --- | --- | --- | --- | --- | --- | --- | --- | --- |
| 6 nM and 6.1 nM |  |  |  |  |  |  |  |  |  |  | AcVELARRPLPPLPN-NH2 (Ac-VE(Rh2(OAc)3)LARRPLPPLPN-NH2; also: metal complex: Glu2 carboxylate bound to dirhodium(II) triacetate) [S2E^Rh, rhodium(II) metallopeptide made from S2E peptide (Ac…-NH2) and Rh2(tfa)(OAc)3] |
|  | 1.1 | 2.7 | -11.2 | –13.9 kcal mol-1 | -13.9 | 1.1 | 7.2 | 327 | -8.8 | -16.0 | AcVELARRPLPPLPN-NH2 [S2E^Rh] |
